# Test system: Aβ levels in HEK293APP stable cells
# Test: Aβ ELISA, HEK293APP stable cells treated with TAT fusion peptides
# Assay type: cell-based
# Conditions: TAT = 1
# Procedure: Upon collecting the culture medium of the cells, Aβ40 and Aβ42 levels were quantified with sandwich ELISA kit, respectively (purchased from Invitrogen). The forebrain of the mouse was dissected and separated, and then homogenized with GuHCL. After that, total Aβ was determined by ELISA. For determining TBST(Tris-Buffered Saline and 1% TritonX100, 1% SDS, 1% DOC) soluble and insoluble Aβ, upon TBST homogenation and centrifugation of the forebrain of the mouse, the supernatant was determined for TBST soluble Aβ by ELISA, and the precipitate was determined for TBST insoluble Aβ by ELISA upon another GuHCL homogenate.
# In this Example, the second transmembrane domain (487-507aa, TM2) was selected to fuse with cell penetrating peptide TAT and the fusion peptide TAT-TM2 and the mutant thereof TAT-TM2mut were obtained. Their effects on Aβ levels were examined in HEK293APP stable cells.
# 6.1.2 The Effect of Different Doses of Fusion Protein TAT-TM2 on Aβ Levels in HEK293APP Stable Cells were Determined.
# To search for shorter fragments which could inhibit Aβ levels, TM2 was divided into N- and C-terminals and fused with TAT respectively. The effects of TAT-TM2-N, TAT-TM2-C and TAT-TM2-C mutant on Aβ levels in HEK293APP cells was examined.
# [1] = Table 9, TAT-TM2 variants, HEK293APP cells
# [2] = Table 8, HEK293APP stable cells
Substance,Aβ40 [1],Aβ42 [1],Aβ40 [2],Aβ42 [2]
"TAT-TM2-C-m1: TAT-TM2-C mutant, SEQ ID NO.:25, DDSWVIGMIWAGRKKRRQRRRC (fusion protein)",0.54 ± 0.01,0.33 ± 0.07,–,–
"TAT-TM2-C-m2: TAT-TM2-C mutant, SEQ ID NO.:26, IISDDIGMIWAGRKKRRQRRRC (fusion protein)",1.09 ± 0.10,1.04 ± 0.15,–,–
"TAT-TM2-C-m3: TAT-TM2-C mutant, SEQ ID NO.:27, IISWVIGMDDAGRKKRRQRRRC (fusion protein)",1.07 ± 0.11,1.07 ± 0.13,–,–
"TAT-TM2-C: C-terminal of TM2 fused with TAT, SEQ ID NO.:24, IISWVIGMIWAGRKKRRQRRRC (fusion protein)",0.71 ± 0.07,0.72 ± 0.03,–,–
"TAT-TM2-N: N-terminal of TM2 fused with TAT, SEQ ID NO.:23, TSCFSWMEMLGRKKRRQRRRC (fusion protein)",0.97 ± 0.04,0.97 ± 0.04,–,–
"TAT-TM2-mut: mutated TAT-TM2 peptide, SEQ ID NO.:22, TSCFSWMEMLIISDDIGMDDAGRKKRRQRRRC (fusion protein)",–,–,0.89 ± 0.07,0.93 ± 0.09
